Assay results: PMC7180456, “Multitarget Anticancer Agents Based on Histone Deacetylase and Protein Kinase CK2 Inhibitors” (Molecules, 2020)
Like-named read-outs stand apart in the source and are kept apart here.

Key:
[1] = system: CK2; conditions: Figure 1; read-out: IC50 of representative CK2 inhibitors; cited from earlier work
[2] = biological target: T1, human recombinant CK2α (Homo sapiens, UniProt P68400); assay: CK2 inhibition, radiometric method with peptide substrate […]; assay type: biochemical; conditions: for fold less active in CK2 (than in HDAC1): CK2 IC50 versus HDAC1 IC50; for IC50: radiometric method, 20 µM ATP, read-out: Inhibitory activity IC50 on CK2
T1 construct: GST; made in house; host or cells: bacteria
Protocol: (§1) The activity towards human recombinant HDAC1 was tested using a fluorometric method. CK2 inhibitory activity was determined by a radiometric method, using a short peptide ([…]) as a substrate.
Recombinant human protein kinase GST-CK2 was produced in bacteria and purified as described elsewhere. […] The reaction buffer contained 20 µM [γ-32P] ATP (specific radioactivity 300–1000 cpm/pmol), 15 mM Mg^2+, 20 mM Tris–HCl pH 7.5, and 6 mM 2-mercaptoethanol. 10 µL of the assay mixture was spotted onto a square (1 cm/1 cm) of Whatman P81 paper and allowed to dry. Each square was immersed in cold 0.5% phosphoric acid, and washed three times during 10 min, allowed to dry and transferred into a vessel containing Opti-Phase liquid (scintillation solution) and radioactivity was quantified using a scintillation counter (MicroBeta, Perkin Elmer) by Cerenkov counting. All experiments were performed in triplicate. IC50 values were calculated using GraphPad Prism (version 4.0) software.

[3] = biological target: T2, human recombinant HDAC1 (Homo sapiens, UniProt Q13547); assay: HDAC1 inhibition, fluorometric method (Enzo Fluorometric Drug Discovery Assay Kit); assay type: biochemical; conditions: read-out: Inhibitory activity IC50 on HDAC1
T2 construct: purchased Enzo Life Sciences, Inc
Protocol: as §1, with “The inhibitory activities of the synthesized compounds were determined against CK2 and HDAC1 and the IC50 values are collected in Table 1. The” for “The”
(§2) 15 µL of HDAC1 (0.4 µg/well) or HDAC6 (0.5 µg/well) were incubated at 37 °C for 30 minutes with 10 µL of inhibitor diluted in 5% DMSO and 25 µL of fluorogenic substrate (0.05 µL/well of 5 mM solution). Reactions were stopped with the developer and trichostatin A, diluted in buffer without BSA, and the plate was incubated at 30 °C for 45 min, followed by measuring the fluorescence (Ex. 360 nm, Em. 450 nm, Fluoroskan, Thermo Scientific).

[4] = biological target: T3, HDAC6 (Homo sapiens, UniProt Q9UBN7); assay: HDAC6 inhibition, fluorometric method (Enzo Fluorometric Drug Discovery Assay Kit); assay type: biochemical; conditions: read-out: Inhibitory activity IC50 on HDAC6
T3 construct: purchased Enzo Life Sciences, Inc
T3 sequence (Q9UBN7 1-1215): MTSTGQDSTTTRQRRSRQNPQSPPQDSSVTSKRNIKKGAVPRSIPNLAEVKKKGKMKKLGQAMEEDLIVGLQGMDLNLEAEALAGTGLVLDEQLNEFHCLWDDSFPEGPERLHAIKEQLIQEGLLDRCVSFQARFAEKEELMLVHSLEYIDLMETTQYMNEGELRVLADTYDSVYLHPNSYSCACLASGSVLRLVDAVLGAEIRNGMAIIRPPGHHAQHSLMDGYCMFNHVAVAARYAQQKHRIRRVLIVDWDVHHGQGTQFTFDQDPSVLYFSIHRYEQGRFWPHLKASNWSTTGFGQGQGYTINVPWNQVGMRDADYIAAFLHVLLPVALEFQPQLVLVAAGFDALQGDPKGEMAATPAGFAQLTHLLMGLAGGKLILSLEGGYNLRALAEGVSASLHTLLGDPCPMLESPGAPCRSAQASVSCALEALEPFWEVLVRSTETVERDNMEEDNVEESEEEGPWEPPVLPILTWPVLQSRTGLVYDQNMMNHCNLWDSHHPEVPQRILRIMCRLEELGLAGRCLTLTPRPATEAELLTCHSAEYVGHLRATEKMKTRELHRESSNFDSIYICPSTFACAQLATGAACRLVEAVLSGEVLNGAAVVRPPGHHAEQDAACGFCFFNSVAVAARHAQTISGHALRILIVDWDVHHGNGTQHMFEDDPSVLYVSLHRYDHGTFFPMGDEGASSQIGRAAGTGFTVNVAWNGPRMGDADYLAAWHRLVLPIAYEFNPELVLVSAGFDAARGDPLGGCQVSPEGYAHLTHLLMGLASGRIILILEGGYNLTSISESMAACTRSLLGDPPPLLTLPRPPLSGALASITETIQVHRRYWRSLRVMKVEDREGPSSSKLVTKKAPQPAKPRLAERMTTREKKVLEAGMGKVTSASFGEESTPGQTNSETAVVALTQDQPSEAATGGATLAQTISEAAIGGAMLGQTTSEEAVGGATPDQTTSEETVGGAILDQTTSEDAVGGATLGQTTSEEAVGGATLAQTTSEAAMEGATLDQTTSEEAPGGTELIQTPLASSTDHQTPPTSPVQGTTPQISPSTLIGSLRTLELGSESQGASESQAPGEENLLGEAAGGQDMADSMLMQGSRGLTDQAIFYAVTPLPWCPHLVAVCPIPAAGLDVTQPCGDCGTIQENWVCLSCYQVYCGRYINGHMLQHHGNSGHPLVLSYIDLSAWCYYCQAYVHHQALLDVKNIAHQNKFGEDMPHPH
Protocol: For this reason, we analyzed the activity of 15 and 19, together with other compounds from the alkyl and triazole series in HDAC6, tested using a fluorometric method (Table 1).
as §2

[5] = system: Jurkat T-leukemia cells; assay: Cytotoxicity, trypan blue exclusion assay, 24 h; conditions: Homo sapiens
[6] = system: breast adenocarcinoma cells of MCF-7 line; assay: Cytotoxicity, trypan blue exclusion assay, 24 h; conditions: Homo sapiens
[7] = system: HL-60/wt cells; assay: Depolarization of mitochondria, JC-1 assay, FACS; assay type: cell-based, human; conditions: 24 h
[8] = system: human tumor and pseudonormal cell lines; assay: Cytotoxicity, trypan blue assay, range over the cell lines tested; assay type: cell-based; conditions: 24 h, read-out: LC50 range depending on cell line
Text: (§3) Statistical significance was set at P ≤ 0.05.

[9] = Cytotoxicity, trypan blue exclusion assay, 24 h (pseudonormal cells); conditions: human, HEK293 embryonic kidney cells (pseudonormal)
[10] = system: HCT-116 colon carcinoma cells; assay: Cytotoxicity, trypan blue exclusion assay, 24 h; conditions: Homo sapiens
[11] = system: HL-60/vinc (vincristine-resistant, P-gp overexpression); assay: Cytotoxicity, trypan blue exclusion assay, 24 h; assay type: cell-based; conditions: for CC50: Homo sapiens, HL60/vinc
Text: (§4) Taking into consideration the high abundance of CK2 kinase in leukemia and lymphomas, the ability of selected CK2-HDAC dual inhibitors to circumvent MDR was investigated in human leukemia cells of HL-60 line and its doxorubicin-resistant (HL-60/adr, MRP-1 overexpression) and vincristine-resistant (HL-60/vinc, P-gp overexpression) sublines.
as §3

[12] = system: HL-60/adr (doxorubicin-resistant, MRP-1 overexpression); assay: Cytotoxicity, trypan blue exclusion assay, 24 h; assay type: cell-based; conditions: Homo sapiens, HL60/ADR
Text: as §4, §3

[13] = system: leukemia cells of HL-60 line; assay: Cytotoxicity, trypan blue exclusion assay, 24 h; assay type: cell-based; conditions: Homo sapiens
Text: as §4, §3

[14] = 24 h, read-out: LC50 Values of Compounds for Cell Line, Jurkat
[15] = read-out: LC50 values of compounds for cell line, Jurkat
[16] = MCF7, 24 h, read-out: LC50 Values of Compounds for Cell Line, MCF-7
[17] = MCF7, read-out: LC50 values of compounds for cell line, MCF-7
[18] = LC50 Values of Compounds for Cell Line, HEK293, Table 2, trypan blue, 24 h, M ± SD
[19] = LC50 values of compounds for cell line, HEK293, supplement Table 4S, M±SD
[20] = HCT-116, 24 h, read-out: LC50 Values of Compounds for Cell Line, HCT-116
[21] = HCT-116, read-out: LC50 values of compounds for cell line, HCT-116
[22] = Table 2, trypan blue, 24 h, M ± SD, read-out: LC50 Values of Compounds for Cell Line, HL-60/vinc
[23] = supplement Table 4S, M±SD, read-out: LC50 values of compounds for cell line, HL-60/vinc
[24] = Table 2, trypan blue, 24 h, M ± SD, read-out: LC50 Values of Compounds for Cell Line, HL-60/adr
[25] = supplement Table 4S, M±SD, read-out: LC50 values of compounds for cell line, HL-60/adr
[26] = Table 2, trypan blue, 24 h, M ± SD, read-out: LC50 Values of Compounds for Cell Line, HL-60
[27] = supplement Table 4S, M±SD, read-out: LC50 values of compounds for cell line, HL-60

T1 sequence (P68400 whole entry): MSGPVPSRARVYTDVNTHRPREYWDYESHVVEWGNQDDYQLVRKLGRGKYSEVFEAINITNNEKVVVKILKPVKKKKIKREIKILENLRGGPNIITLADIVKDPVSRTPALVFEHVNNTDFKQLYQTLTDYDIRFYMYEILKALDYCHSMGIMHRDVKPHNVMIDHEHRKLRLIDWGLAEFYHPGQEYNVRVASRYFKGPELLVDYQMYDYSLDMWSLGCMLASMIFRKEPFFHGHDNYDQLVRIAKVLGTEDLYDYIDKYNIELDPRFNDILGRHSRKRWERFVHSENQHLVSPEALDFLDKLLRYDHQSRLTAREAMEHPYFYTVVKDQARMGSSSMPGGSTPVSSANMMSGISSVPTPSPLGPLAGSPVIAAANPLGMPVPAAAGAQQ
T2 sequence (Q13547 whole entry): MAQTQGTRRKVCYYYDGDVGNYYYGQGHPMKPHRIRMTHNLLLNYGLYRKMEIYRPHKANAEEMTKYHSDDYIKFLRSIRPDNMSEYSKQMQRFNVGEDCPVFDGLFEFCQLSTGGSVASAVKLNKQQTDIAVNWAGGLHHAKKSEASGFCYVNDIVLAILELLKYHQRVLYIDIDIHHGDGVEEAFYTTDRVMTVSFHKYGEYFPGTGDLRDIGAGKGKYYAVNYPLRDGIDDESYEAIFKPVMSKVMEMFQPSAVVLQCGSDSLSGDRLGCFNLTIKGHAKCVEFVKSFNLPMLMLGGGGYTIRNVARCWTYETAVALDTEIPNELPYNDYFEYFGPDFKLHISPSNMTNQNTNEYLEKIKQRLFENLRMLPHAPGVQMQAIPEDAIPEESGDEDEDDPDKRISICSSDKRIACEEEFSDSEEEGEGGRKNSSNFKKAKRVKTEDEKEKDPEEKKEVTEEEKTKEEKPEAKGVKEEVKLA

CN(C)c1nc2c(Br)c(Br)c(Br)c(Br)c2n1Cc1cn(CCCC(=O)NO)nn1 [Compound 7a, N-Hydroxy-4-(4-((4,5,6,7-tetrabromo-2-(dimethylamino)-1H-benzo[d]imidazol-1-yl)methyl)-1H-1,2,3-triazol-1-yl)butanamide]
fold less active in CK2 (than in HDAC1) [2]: 60 fold
IC50 [2]: 85.1 µM
IC50 [3]: 1.43 µM

CN(C)c1nc2c(Br)c(Br)c(Br)c(Br)c2n1Cc1cn(CCCCC(=O)NO)nn1 [Compound 7b, N-Hydroxy-5-(4-((4,5,6,7-tetrabromo-2-(dimethylamino)-1H-benzo[d]imidazol-1-yl)methyl)-1H-1,2,3-triazol-1-yl)pentanamide]
fold less active in CK2 (than in HDAC1) [2]: 22 fold
IC50 [2]: 50.1 µM
IC50 [4]: 2.41 µM
IC50 [3]: 2.25 µM

CN(C)c1nc2c(Br)c(Br)c(Br)c(Br)c2n1CCc1cn(CCCC(=O)NO)nn1 [Compound 7d, N-Hydroxy-4-(4-(2-(4,5,6,7-tetrabromo-2-(dimethylamino)-1H-benzo[d]imidazol-1-yl)ethyl)-1H-1,2,3-triazol-1-yl)butanamide]
IC50 [2]: 53.8 µM
IC50 [3]: 10.2 µM

CN(C)c1nc2c(Br)c(Br)c(Br)c(Br)c2n1CCCCC(=O)NO [Compound 11a, N-Hydroxy-5-(4,5,6,7-tetrabromo-2-(dimethylamino)-1H-benzo[d]imidazol-1-yl)pentanamide]
IC50 [2]: 34.2 µM
IC50 [3]: 62 µM

CN(C)c1nc2c(Br)c(Br)c(Br)c(Br)c2n1CCCCCC(=O)NO [Compound 11b, N-Hydroxy-6-(4,5,6,7-tetrabromo-2-(dimethylamino)-1H-benzo[d]imidazol-1-yl)hexanamide]
CC50 [5, 14]: 10.2 ± 1.43 µM
CC50 [5, 15]: 10 µM
CC50 [6, 16]: 15.7 ± 2.54 µM
CC50 [6, 17]: 9.97 µM
depolarization of mitochondria ([7]; 10 µM): 14.55%
depolarization of mitochondria ([7]; 30 µM): 34.06%
CC50 [8]: 4 to 23 µM
CC50 at 24 h [9, 18]: 23.3 ± 4.38 µM
CC50 at 24 h [9, 19]: 13.6 µM
CC50 [10, 20]: 4.22 ± 0.46 µM
CC50 [10, 21]: 1.9 µM
IC50 [4]: 0.66 µM
CC50 [11, 22]: 16.8 ± 3.34 µM
CC50 [11, 23]: 12.7 µM
CC50 [12, 24]: 16.2 ± 1.68 µM
CC50 [12, 25]: 10.6 µM
CC50 [13, 26]: 7.67 ± 1.17 µM
CC50 [13, 27]: 6.59 µM
IC50 [3]: 1.46 µM

CN(C)c1nc2c(Br)c(Br)c(Br)c(Br)c2n1CCCCCCC(=O)NO [Compound 11c, N-Hydroxy-7-(4,5,6,7-tetrabromo-2-(dimethylamino)-1H-benzo[d]imidazol-1-yl)heptanamide]
CC50 [5, 14]: 9.47 ± 1.1 µM
CC50 [5, 15]: 5.63 µM
CC50 [6, 16]: 9.97 ± 0.99 µM
CC50 [6, 17]: 9.02 µM
depolarization of mitochondria ([7]; 10 µM): 34.73%
depolarization of mitochondria ([7]; 30 µM): 49.98%
CC50 [8]: 1.9 to 13.6 µM
fold difference in the CK2 inhibitory activity compared to 11b ([2]; compared to 11b): 4.5 fold
IC50 [2]: 16.6 µM
CC50 at 24 h [9, 18]: 13.6 ± 0.8 µM
CC50 at 24 h [9, 19]: 8.41 µM
CC50 [10, 20]: 1.9 ± 0.24 µM
CC50 [10, 21]: 3.1 µM
IC50 [4]: 1.13 µM
CC50 [11, 22]: 12.1 ± 3.27 µM
CC50 [11, 23]: 2.49 µM
CC50 [12, 24]: 10.6 ± 1.53 µM
CC50 [12, 25]: 8.4 µM
CC50 [13, 26]: 6.59 ± 0.96 µM
CC50 [13, 27]: 4.69 µM
IC50 [3]: 1.77 µM

CN(C)c1nc2c(Br)c(Br)c(Br)c(Br)c2n1CCCCCCCC(=O)NO [Compound 11d, N-Hydroxy-8-(4,5,6,7-tetrabromo-2-(dimethylamino)-1H-benzo[d]imidazol-1-yl)octanamide]
CC50 [5, 14]: 5.3 ± 0.75 µM
CC50 [5, 15]: 14.2 µM
CC50 [6, 16]: 9.02 ± 0.9 µM
CC50 [6, 17]: 27.8 µM
level of depolarized mitochondria ([7]; dose not stated in the sentence (10 µM and 30 µM tested)): 53.23%
CC50 [8]: 3 to 8 µM
CC50 at 24 h [9, 18]: 8.41 ± 1.26 µM
CC50 at 24 h [9, 19]: > 30 µM
CC50 [10, 20]: 3.1 ± 0.37 µM
CC50 [10, 21]: 16.9 µM
IC50 [4]: 8.98 µM
change of activity towards P-gp overexpressing HL-60/vinc cells versus HL-60/wt ([11]; 24 h): increased twofold
CC50 [11, 22]: 2.32 ± 1.06 µM
CC50 [11, 23]: > 30 µM
CC50 [12, 24]: 8.4 ± 1.21 µM
CC50 [12, 25]: 15.1 µM
CC50 [13, 26]: 4.69 ± 0.54 µM
CC50 [13, 27]: 29.7 µM
IC50 [3]: 13.7 µM

O=C(NO)c1ccc(Cn2nnc3c(Br)c(Br)c(Br)c(Br)c32)cc1 [Compound 15b, N-Hydroxy-4-((tetrabromo-1H-benzo[d][1,2,3]triazol-1-yl)methyl)benzamide]
IC50 [2]: 136 µM
IC50 [4]: 2.7 µM
IC50 [3]: 4.22 µM

O=c1oc2c(O)c(O)cc3c(=O)oc4c(O)c(O)cc1c4c23 [Ellagic acid]
IC50 [1]: 0.04 µM

O=c1c(O)c(-c2ccc(O)c(O)c2)oc2cc(O)ccc12 [Fisetin]
IC50 [1]: 0.35 µM
